According to patent US20090239929A1, “N-Pyrrolidin-3-YL-Amide Derivatives As Serotonin and Noradrenalin Re-Uptake Inhibitors” (priority 2004, published 2009):
Where a name gives a salt, the structure may show the parent alone.

Key:
[1] = target: T1, human serotonin transporter (hSERT) (Homo sapiens, UniProt P31645); assay: SPA radioligand binding (3H-citalopram) at the human serotonin transporter; conditions: hSERT membranes from HEK-293 cells, Cheng-Prusoff, geometric mean, read-out: SRI Ki
T1 construct: expressed in transfected cells; host or cells: HEK-293
Method: (§1) The compounds were tested for biological activity by their ability to inhibit binding of selective radioligands at the human serotonin and noradrenaline transporters (SERT and NET, respectively), using scintillation proximity assay (SPA) technology. The SPA binding was performed using cellular membrane preparations prepared from cell lines expressing human cDNA encoding either SERT or NET (hSERT, hNET), using the radioligands ^3H-citalopram and ^3H-nisoxetine.
(§2) Human embryonic kidney cells (HEK-293) expressing each transporter were maintained as a continuous culture, using standard cell culture techniques, in 50 mL of growth medium (see Media and Buffers for composition) in 225 cm^2 flasks, at 37° C. in a humidified atmosphere with 5% CO2 present. Cells were passaged from a 90% confluent monolayer at a ratio of 1:3-1:4.
(§3) For cell harvesting, the growth medium was removed from the monolayer and the cells were incubated with cell dissociation solution (Sigma) until showing signs of dissociation. The cells were subsequently knocked from the base of the flask and pelleted by centrifugation for storage (frozen at −80° C.) prior to further use.
(§4) Cell pellets were thawed on ice and resuspended in 3 mL of membrane preparation buffer (see Media and Buffers for composition) per 1 mL of packed cell volume, using a vortex mixer to disperse the cell pellet.
(§5) After incubation on ice for 10 minutes, the suspension was homogenised for four individual 10 second intervals using a hand-held homogeniser. The homogenate was then centrifuged at 1075×g for 20 minutes at 4° C.
(§6) The supernatants were then collected and retained. Initial cell & nuclei pellets (P1) were subsequently rehomogenised and centrifuged using the conditions cited above, and the supernatants collected and pooled with those retained from the first spin.
(§7) The pooled supernatants were centrifuged at 35000×g for 30 minutes at 4° C., and the supernatants discarded. The pellets (P2) were then resuspended in 1 mL of membrane preparation buffer per 1 mL of the original packed cell volume. Protein concentrations were then measured and the membrane suspension was finally frozen in aliquots of set volume and stored at −80° C. prior to use in assays.
(§8) The specific SPA bead type differed for each transporter, wheat germ agglutinin-coated yttrium silicate (YSi WGA) SPA beads were used for hSERT and WGA-coated polyvinyltoluene (PVT WGA) SPA beads for hNET assays. For each batch of membrane used, optimal concentrations of bead and membrane were determined
(§9) Tritiated radioligands specific to each transporter (^3H-citalopram for hSERT and ^3H-nisoxetine for hNET) were used. The assay free radioligand concentration was expressed as a percentage of the total free radioligand concentration to give an estimate of the radioligand depletion. The radioligand depletion in assays for both transporters was less than 30% to ensure that there was sufficient radioligand available for binding. The ligand depletion value was also used for selecting the optimal assay conditions when using new batches of membranes.
(§10) The affinity of the specific radioligand for the respective transporter was determined for each membrane batch at the selected protein and bead concentrations. This was achieved by the determination of the KD, the concentration of free radioligand at which 50% of the transporter binding sites were occupied. The mean KD for a radioligand at a batch of membranes was determined from data from a minimum of three separate assays. The mean KD was subsequently used for all assays using the membrane batch profiled to enable determination of Ki values of compounds studied using the method determined by Cheng and Prussoff (Cheng Y C and Prusoff W H. Relationship between the inhibition constant (Ki) and the concentration of inhibitor which causes 50% inhibition of an enzymatic reaction. Biochem Pharmacol 1973; 22:2099-[…].) […]

[2] = target: T2, human noradrenaline transporter (hNET) (Homo sapiens, UniProt P23975); assay: SPA radioligand binding (3H-nisoxetine) at the human noradrenaline transporter; conditions: hNET membranes from HEK-293 cells, Cheng-Prusoff, geometric mean, read-out: NRI Ki
T2 construct: expressed in transfected cells; host or cells: HEK-293
Method: as §1, §2, §3, §4, §5, §6, §7, §8, §9, §10

T1 sequence (P31645 whole entry): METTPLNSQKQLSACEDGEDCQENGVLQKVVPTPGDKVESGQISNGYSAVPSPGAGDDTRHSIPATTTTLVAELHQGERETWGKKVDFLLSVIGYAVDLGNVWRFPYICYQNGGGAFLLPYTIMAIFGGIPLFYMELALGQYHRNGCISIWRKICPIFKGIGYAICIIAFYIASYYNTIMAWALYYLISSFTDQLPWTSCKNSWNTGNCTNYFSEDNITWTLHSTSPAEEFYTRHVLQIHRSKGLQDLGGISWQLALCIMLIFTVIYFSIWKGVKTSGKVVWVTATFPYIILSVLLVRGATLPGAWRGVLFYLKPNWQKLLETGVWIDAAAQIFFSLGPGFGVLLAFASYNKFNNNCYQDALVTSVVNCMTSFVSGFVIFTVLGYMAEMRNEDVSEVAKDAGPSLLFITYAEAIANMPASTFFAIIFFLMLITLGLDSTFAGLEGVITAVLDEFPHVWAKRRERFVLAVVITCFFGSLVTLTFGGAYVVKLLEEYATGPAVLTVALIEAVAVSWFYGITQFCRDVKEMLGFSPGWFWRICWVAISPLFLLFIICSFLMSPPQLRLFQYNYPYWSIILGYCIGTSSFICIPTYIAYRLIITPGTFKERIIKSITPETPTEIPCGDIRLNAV
T2 sequence (P23975 whole entry): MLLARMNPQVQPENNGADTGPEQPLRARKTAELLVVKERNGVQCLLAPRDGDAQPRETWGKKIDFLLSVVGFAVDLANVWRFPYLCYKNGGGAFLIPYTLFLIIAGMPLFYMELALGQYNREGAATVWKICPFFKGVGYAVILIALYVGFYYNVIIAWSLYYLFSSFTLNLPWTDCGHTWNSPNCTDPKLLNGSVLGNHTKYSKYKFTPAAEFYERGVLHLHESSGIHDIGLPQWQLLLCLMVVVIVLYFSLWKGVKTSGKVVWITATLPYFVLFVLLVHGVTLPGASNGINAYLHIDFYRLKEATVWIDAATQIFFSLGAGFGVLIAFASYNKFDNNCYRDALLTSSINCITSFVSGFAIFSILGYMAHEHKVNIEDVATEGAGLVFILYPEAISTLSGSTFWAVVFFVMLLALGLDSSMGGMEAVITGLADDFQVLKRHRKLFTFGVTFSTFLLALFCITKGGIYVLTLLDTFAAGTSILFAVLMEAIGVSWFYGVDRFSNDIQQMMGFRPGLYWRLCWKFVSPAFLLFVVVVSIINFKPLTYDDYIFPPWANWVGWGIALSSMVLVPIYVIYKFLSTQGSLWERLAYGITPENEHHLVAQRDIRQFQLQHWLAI

SMILES	Ki [1] [nM]	Ki [2] [nM]
O=C(c1ccccc1C(F)(F)F)N(C1CC2CCC1C2)[C@H]1CCNC1 (stereo partly drawn) [Example 3, N-Bicyclo[2.2.1]hept-2-yl-2-(trifluoromethyl)N-[(3S)pyrrolidin-3-yl]benzamide]	30	28
O=C(c1cccc(Cl)c1Cl)N(C(C1CC1)C1CC1)[C@H]1CCNC1 [Example 10, 2,3-dichloro-N-(dicyclopropylmethyl)-N-[(3S)-pyrrolidin-3-yl]benzamide hydrochloride]	11	72
O=C(c1cccc(Cl)c1Cl)N([C@H]1C[C@H]2CC[C@H]2C1)[C@H]1CCNC1 [Example 1, N-(1R,3r,5 S)-Bicyclo[3.2.0]hept-3-yl-2,3-dichloro-N-[(3S)-pyrrolidin-3-yl]benzamide]	9	12
O=C(c1cccc(Cl)c1Cl)N(CCC(F)(F)F)[C@H]1CCNC1 [Example 5, 2,3-Dichloro-N-[(3S)-pyrrolidin-3-yl]-N-(3,3,3-trifluoropropyl)benzamide hydrochloride]	21	58
CC(F)(F)CN(C(=O)c1ccccc1Oc1ccccc1)[C@H]1CCNC1 [Example 7, N-(2,2-Difluoropropyl)-2-phenoxy-N-[(3S)-pyrrolidin-3-yl]benzamide hydrochloride]	1590	10
O=C(c1ccccc1Cl)N(C1CC2CCC1C2)[C@H]1CCNC1 (stereo partly drawn) [Example 4, N-Bicyclo[2.2.1]hept-2-yl-2-chloro-N-[(3S)-pyrrolidin-3-yl]benzamide]	6	25
